Data: paper PMC10179701, “Towards Protection of Nucleic Acids from Herbicide Attack: Self-Assembly of Betaines Based on Pillar[5]arene with Glyphosate and DNA” (International Journal of Molecular Sciences, 2023)
“And” between values parts separate entries of the source, which are not always exact repeats. Equal values may be shown once.

Key:
[1] = Dynamic light scattering of macrocycle aggregates in water; type: physicochemical; conditions: H2O, 298 K
Description: The next stage of the work was the study of aggregation properties of both previously synthesized ester derivatives of amino acids 1 and 2, and macrocyclic betaine derivatives 3 and 4 by dynamic light scattering (DLS). The study was carried out in water in the 1 × 10^–6–1 × 10^–4 M concentration range (Figures S11–S22). The size of associates increases with decreasing macrocycle 1 concentration in solution (Table 1). A different pattern is observed for betaine derivative 3. Thus, the particles become coarser, and the polydispersity index (PDI) of the systems increased with an increase in compound 3 concentration, which is probably due to the formation of β-sheets by oligopeptide substituents. The presence of two oppositely charged fragments in one substituent leads to the fact that compound 3 becomes similar to surfactant molecules in terms of its aggregation properties.

[2] = Dynamic light scattering of (macrocycle-DNA)-GIS associates in Tris-HCl buffer; type: physicochemical; conditions: CPA 3 × 10^–6 M, CDNA 2.5 × 10^–7 M, CGIS 3 × 10^–6 M
Excerpt: The obtained (macrocycle-DNA)-GIS associates were also studied by DLS in Tris-HCl buffer solution. The concentration of each component of the mixture was the same as in the experiments performed by UV-Vis spectroscopy (CPA = 3 × 10^–6 M, CDNA = 2.5 × 10^–7 M, CGIS = 3 × 10^–6 M). The formation of the stable aggregates (d = 183 ± 5 nm, PDI = 0.19, and ζ = –22.2 mV) was found only for the system based on macrocycle 2 with phenylalanine ester fragments (Figure S33). […] This, apparently, leads to the formation of stable aggregates in the case of the three-component (macrocycle-DNA)-GIS systems. The associate’s formation for three-component (2–DNA)–GIS system was additionally confirmed by TEM (Figure 8). It was shown that spherical nanosized particles with sizes close to those determined by DLS are formed.

[3] = Transmission electron microscopy of aggregates; type: physicochemical; conditions: 1 × 10^−4 M in water
Excerpt: The nanosized aggregates formed by macrocycle 2 were studied by transmission electron microscopy (TEM). The formation of the spherical nanosized particles with sizes close to those determined by DLS was confirmed.

[4] = tested on: A549 cells; assay: MTT test, A549 cells
Description: (§1) The next stage of this work was the study of pillar[5]arenes 1–4 ability to inhibit the viability and proliferative activity of embryonic lung epithelial (LEC) and human lung adenocarcinoma (A549) cells using the MTT test.
(§2) Further, the ability of GIS to inhibit the viability and proliferative activity of LEC and A549 cells was studied by the MTT test. […] The average inhibitory concentration (IC50) was calculated for GIS (Table 3). […]
(§3) 1.6. Cytotoxicity of pillar[5]arenes 1–4, GIS and their mixtures on A549 and LEC Cell Lines […]
(§4) activity of LEC cells and A549 cells was investigated using the MTT test according to [2]. A549 – human alveolar adenocarcinoma cell line (ATCC, Rockville, Maryland, USA) and cow embryo lung epithelial (LEC) cells (Animal Cell Culture Collection of Russian Academy of Agricultural Science, Kazan, Russia) were cultured in DMEM (GIBCO, Waltham, MA, USA) medium supplemented with 10% serum and 100 units/mL of penicillin (PanEco, Moscow, Russia) and streptomycin (PanEco, Moscow, Russia) in a humidified atmosphere with 5% CO2 at 37 °C. Cells were seeded in 96‐well plates at a concentration of 10^4 cells/well. After 24 h of cultivation, the medium was removed from the wells and replaced with a fresh one with the addition of the test substances. The volume of the culture medium in the wells was 100
(§5) μL. After 24 h incubation of cells in the presence of substances, the medium in the wells was replaced with a fresh one containing MTT reagent at a final concentration of 0.5 mg/mL. The cells were incubated with MTT for 4 h at 37 °C in an atmosphere of 5% CO2. Then, the medium was aspirated from the wells and 100 μL of dimethyl sulfoxide was added. Probes were incubated at 37 °C for 15 min in the dark for the formazan crystals to dissolve. The optical density of the formazan solution in the wells was measured using a plate reader (BioRad xMarkTM Microplate Spectrophotometer, USA) at a wavelength of 570 nm.
(§6) Three series of experiments were carried out with at least 8 replications for each variant in the series. […]

[5] = tested on: LEC cells; assay: MTT test, LEC cells
Description: as §1, §2, §3, §4, §5, §6

[6] = tested on: A549 cells; assay: Apoptosis induction by flow cytometry (DiOC6/PI), A549 cells; type: cell-based, human; conditions: A549, 25 μg/mL, 24 h
Description: (§7) The cytotoxic effect of pillar[5]arene 2 containing ester fragments of phenylalanine is probably due to the stable aggregates’ formation (Table 1). […] The agent concentration of 25 μg/mL was chosen for the experiment. […] The apoptosis-inducing effect of compound 2 on A549 and LEC cells turned out approximately the same. […]
(§8) buffer solution. The UV spectra of the solutions were then recorded. The stability constant of complex was calculated by Bindfit. Three independent experiments were carried out for each series. […]
(§9) volume of 3 mL with Tris‐HCl buffer solution. The UV spectra of the solutions were then recorded. The stability constant of each complex was calculated by Bindfit. Three independent experiments were carried […]
(§10) stability constant of complex was calculated by Bindfit. Three independent experiments were carried out […]
(§11) humidified atmosphere with 5% CO2 at 37 °C. […]
(§12) fresh one with the addition of the test substances.
(§13) Then, the medium was aspirated from the wells and 100 μL of dimethyl sulfoxide was added. […]
(§14) the formazan crystals to dissolve.
(§15) BD FACSCanto II flow cytometer. […]
(§16) humidified atmosphere with 5% CO2. […]
(§17) substances. […] After 24 h of incubation cells were […]

[7] = tested on: LEC cells; assay: Apoptosis induction by flow cytometry (DiOC6/PI), LEC cells; type: cell-based, cow; conditions: 25 μg/mL, 24 h
Description: as §7, §8, §9, §10, §11, §12, §13, §14, §15, §16, §17

[8] = tested on: A549 cells; assay: MTT assay, combined action of macrocycles with GIS on A549 cells; type: cell-based, human; conditions: A549, pillararene 1 × 10^–5 M with GIS 3.47 × 10^–2 M
Description: The ability to inhibit the viability and proliferative activity of A549 cells of macrocycles 1–4 in the presence of GIS was studied using the MTT assay. […] The developed approach opens up the possibility of creating pillar[5]arene-based herbicide antidotes. […]
as §12
Then, the medium was aspirated from the wells
and 100 μL of dimethyl sulfoxide was added.
the formazan crystals to dissolve. […]
as §17

CCOC(=O)[C@H](Cc1ccccc1)NC(=O)C[N+](C)(C)CCCNC(=O)COc1cc2c(OCC(=O)NCCC[N+](C)(C)CC(=O)N[C@@H](Cc3ccccc3)C(=O)OCC)cc1Cc1cc(OCC(=O)NCCC[N+](C)(C)CC(=O)N[C@@H](Cc3ccccc3)C(=O)OCC)c(cc1OCC(=O)NCCC[N+](C)(C)CC(=O)N[C@@H](Cc1ccccc1)C(=O)OCC)Cc1cc(OCC(=O)NCCC[N+](C)(C)CC(=O)N[C@@H](Cc3ccccc3)C(=O)OCC)c(cc1OCC(=O)NCCC[N+](C)(C)CC(=O)N[C@@H](Cc1ccccc1)C(=O)OCC)Cc1cc(OCC(=O)NCCC[N+](C)(C)CC(=O)N[C@@H](Cc3ccccc3)C(=O)OCC)c(cc1OCC(=O)NCCC[N+](C)(C)CC(=O)N[C@@H](Cc1ccccc1)C(=O)OCC)Cc1cc(OCC(=O)NCCC[N+](C)(C)CC(=O)N[C@@H](Cc3ccccc3)C(=O)OCC)c(cc1OCC(=O)NCCC[N+](C)(C)CC(=O)N[C@@H](Cc1ccccc1)C(=O)OCC)C2.[Br-].[Br-].[Br-].[Br-].[Br-].[Br-].[Br-].[Br-].[Br-].[Br-] [Compound 2]
polydispersity index (PDI) ([1]; 1 × 10^–4 M): 0.24
size of aggregates d ([1]; 1 × 10^–4 M): 179 nm and 179 ± 8 nm
zeta potential ζ ([1]; 1 × 10^–4 M): +15.9 mV
polydispersity index (PDI) ([1]; 1 × 10^–5 M): 0.21
size of aggregates d ([1]; 1 × 10^–5 M): 157 ± 2 nm
zeta potential ζ ([1]; 1 × 10^–5 M): +31.6 mV
polydispersity index (PDI) ([1]; 1 × 10^–6 M): 0.28
size of aggregates d ([1]; 1 × 10^–6 M): 144 nm and 144 ± 7 nm
zeta potential ζ ([1]; 1 × 10^–6 M): +12.5 mV
PDI of three-component (macrocycle-DNA)-GIS system [2]: 0.19
size of aggregates d of three-component (macrocycle-DNA)-GIS system [2]: 183 ± 5 nm
zeta potential ζ of three-component (macrocycle-DNA)-GIS system [2]: –22.2 mV
average diameter of particles (TEM) [3]: 50 nm
concentration at which viability was reduced ([4]; A549): ≥ 5000 ng/mL
IC50 ([4]; A549, MTT, 24 h): 29.67 µg/mL
concentration at which viability was reduced [5]: ≥ 5000 ng/mL
IC50 ([5]; MTT, 24 h): 28.16 µg/mL
proportion of living cells (Live, percentage of stained cells) [6]: 74.8%
proportion of living cells (Live, percentage of stained cells) [7]: 72.7%
change of toxicity on combined action with GIS [8]: increase in toxicity
